Data published in US20130059295A1 (priority 2011, published 2013).
pEC50, pKd: −log10 of the molar value. In brackets after ≈: the same amount, converted by molar mass.

Experiments:
[1] = system: fatty acid biosensor plasmids in DH1 fadD knockout strain; type: cell-based, E. coli; conditions: up to the addition of 1 mM oleic acid
[2] = system: fatty acid sensing strain (pBARk-RFP and pE8a-fadR in E. coli); test: Fatty acid biosensor pBARk-RFP with pE8a-fadR, oleic acid added to growth media (Example 3); type: cell-based; conditions: plasmid pBARk-RFP, over a broad range of oleic acid concentration, 12 hours
[3] = system: fatty acid biosensor plasmids pLR-rfp and pAR-rfp in fadE knockout DH1 E. coli cells; test: microbe, parasite or virus in culture; type: cell-based
[4] = cited from earlier work
[5] = system: E. coli fadBA promoter (PfadBA); conditions: upon the addition of 5 mM oleic acid; cited from earlier work
FadR = FadR (Escherichia coli, UniProt P0A8V6); conditions: read-out: Kd of FadR binding to oleic acid; cited from earlier work
FadR, sequence (P0A8V6 whole entry): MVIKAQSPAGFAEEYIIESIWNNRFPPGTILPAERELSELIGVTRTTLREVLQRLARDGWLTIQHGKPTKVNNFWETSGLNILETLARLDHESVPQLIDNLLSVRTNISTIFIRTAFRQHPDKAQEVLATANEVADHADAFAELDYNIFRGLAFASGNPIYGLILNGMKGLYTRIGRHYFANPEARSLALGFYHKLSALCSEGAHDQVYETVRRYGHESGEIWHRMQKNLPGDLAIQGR

HucR = conditions: read-out: Kd (apparent), one value printed for the listed ligands; cited from earlier work

Structure (SMILES)	induction of RFP expression [1]	increase in fluorescence signal [2]	pEC50 ([3]; Escherichia coli, 12 h, read-out: apparent half maximal effective concentration (EC50))	fluorescence change upon the addition of oleic acid ([3]; pAR-rfp, fadE knockout DH1 E. coli)	solubility limit in aqueous solution [4]	increased expression level of PfadBA [5]	pKd (FadR)	pKd (HucR)
CCCCCCCC/C=C\CCCCCCCC(=O)O [oleic acid]	no induction of RFP expression was detected	more than 50 fold	4.22 to 4.46	60 fold	5 mM (≈ 1410 µg/mL)	5 fold	5.30	
O=C(O)c1ccccc1O [salicylate]								4.94
O=c1[nH]c(=O)c2[nH]c(=O)[nH]c2[nH]1 [uric acid]								4.94
